The values below are quoted from earlier work in patent US7682606B2, “Methods of producing edible fungi containing activated folates and nutritional supplements containing activated folates” (Jarrow Formulas, Inc., priority 2003, dated 2010).

For series [1] the following is noted: animal.
In series [2] the test system is homocysteine. As to conditions: human.

As for `CN1c2c(nc(N)[nH]c2=O)NCC1CNc1ccc(C(=O)N[C@@H](CCC(=O)O)C(=O)O)cc1` (some centres unmarked) [5-MTHF, 5-methyltetrahydrofolate], the “Intestinal absorption after oral administration” value in series [1] is recorded as “readily absorbed from the intestinal tract without degradation”.

`CN1c2c(nc(N)[nH]c2=O)NCC1CNc1ccc(C(=O)N[C@@H](CCC(=O)O)C(=O)O)cc1` (single isomer, unassigned) [L-isomer of 5-MTHF, 5-methyltetrahydrofolate]: the “Reducing homocysteine, compared with racemic D,L mixtures” value in series [2] is “superior to racemic mixtures”.
